Values belong to the molecule of their own block, whether it stands above or below them. Where a SMILES comes first, the peptide text is derived from it. [ ]: non-standard residue; d: D form. The star is where a group is joined. FITC = O=C1OC2(c3ccc(O)cc3Oc3cc(O)ccc32)c2ccc(NC(=S)*)cc21; Nle = CCCC[C@H](N)C(=O)O; βAla = NCCC(=O)O
Legend:
[1] = 10 mg/kg FITC-conjugated peptide
[2] = tested on: Jurkat T-cell leukemia cells; assay: Confocal microscopy, intracellular localization; type: cell-based; details: fixed cells
Method: Confocal microscopy experiments were employed in order to determine the intracellular localization of SAHB3BIDA. Jurkat T-cell leukemia cells were incubated with FITC-labeled compounds as described above or with serum replacement at 4 hours followed by additional 16 hours incubation at 37° C., and after washing twice with PBS, were cytospun at 600 RPM for 5 minutes onto superfrost plus glass slides (Fisher). Cells were then fixed in 4% paraformaldehyde, washed with PBS, incubated with TO-PRO-3 iodide (100 nM) (Molecular Probes) to counterstain nuclei, treated with Vectashield mounting medium (Vector), and then imaged by confocal microscopy (BioRad 1024). For double labeling experiments, fixed cells were additionally incubated with primary antibody to TOM20, and rhodamine-conjugated secondary antibody prior to TOPRO-3 counterstaining. […] Treated Jurkats were washed twice and then resuspended in PBS and wet mount preparations analyzed with a BioRad 1024 (Beth Israel/Deaconess Center for Advanced Microscopy) or Zeiss LSM510 laser scanning confocal microscope (Children's Hospital Boston Imaging Core).

[3] = tested on: Jurkat T-cell leukemia cells; assay: Cellular uptake of FITC-peptides by FACS
trypsin = molecular target: T1, trypsin (Bos taurus, UniProt P00760); assay: In vitro trypsin proteolysis (trypsin agarose); type: in vitro ADME; details: first order rate constant, triplicate
T1 sequence (P00760 24-246): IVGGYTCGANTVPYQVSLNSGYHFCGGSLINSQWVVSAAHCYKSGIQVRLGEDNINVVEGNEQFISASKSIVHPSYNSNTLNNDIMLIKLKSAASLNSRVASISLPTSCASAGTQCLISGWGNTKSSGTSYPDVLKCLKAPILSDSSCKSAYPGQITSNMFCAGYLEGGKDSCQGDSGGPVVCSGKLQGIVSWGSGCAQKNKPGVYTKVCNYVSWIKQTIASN
Method: The amide bond of the peptide backbone is susceptible to hydrolysis by proteases, thereby rendering peptidic compounds vulnerable to rapid degradation in vivo. Peptide helix formation, however, buries the amide backbone and therefore shields it from proteolytic cleavage. […] SAHB3BIDA and unmodified peptide were incubated with trypsin agarose and the reactions quenched at various time points by centrifugation and subsequent HPLC injection to quantitate the residual substrate by ultraviolet absorption at 280 nm. […] Reactions were quenched by tabletop centrifugation at high speed; remaining substrate in the isolated supernatant was quantified by HPLC-based peak detection at 220 nm.

GST-BCL-2 = molecular target: T2, GST-BCL-2 (Homo sapiens, UniProt P10415); assay: Fluorescence polarization competitive binding (displacement of FITC-BID BH3)
T2 construct: containing the plasmid encoding C-terminal deleted GST-BCL-2; made in house; host or cells: Escherichia coli BL21 (DE3)
T2 sequence (P10415 1-218 limits assumed): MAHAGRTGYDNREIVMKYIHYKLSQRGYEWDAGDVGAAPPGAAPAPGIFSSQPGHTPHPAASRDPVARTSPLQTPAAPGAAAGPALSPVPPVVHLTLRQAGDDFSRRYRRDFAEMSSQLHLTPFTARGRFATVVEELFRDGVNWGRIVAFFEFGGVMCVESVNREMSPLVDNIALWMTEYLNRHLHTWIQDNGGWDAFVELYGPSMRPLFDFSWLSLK

BCL-2 = molecular target: T3, BCL-2 (Homo sapiens, UniProt P10415); assay: Fluorescence polarization direct binding assay
T3 construct: containing the plasmid encoding C-terminal deleted GST-BCL-2; made in house; host or cells: Escherichia coli BL21 (DE3)
T3 sequence (P10415 1-218 limits assumed): as above

BAX = molecular target: T4, BAX (Homo sapiens, UniProt Q07812); assay: Fluorescence polarization direct binding assay; details: full-length BAX
T4 construct: Full-length BAX protein was prepared as previously described (Suzuki et al, Cell, 103:645); made in house
T4 sequence (Q07812 whole entry): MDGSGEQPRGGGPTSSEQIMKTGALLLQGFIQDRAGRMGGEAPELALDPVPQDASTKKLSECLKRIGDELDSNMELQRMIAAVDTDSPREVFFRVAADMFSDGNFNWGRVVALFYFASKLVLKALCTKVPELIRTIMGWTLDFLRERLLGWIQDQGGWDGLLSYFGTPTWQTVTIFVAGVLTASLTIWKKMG

BCL-XL = assay: 15N/1H HSQC NMR of 15N-labeled BCL-XL; type: binding; details: 1:1 complex, 0.1 mM
Method: Briefly, Escherichia coli BL21 (DE3) containing the plasmid encoding C-terminal deleted BCL-XL were cultured in M9-minimal medium containing ^15NH4Cl (Cambridge Isotope Laboratories) to generate uniformly ^15N-labeled protein. Recombinant proteins were isolated from bacteria. […] Two dimensional ^15N/^1H heteronuclear single-quantum spectra were recorded for the two complexes and analyzed for changes in resonance upon ligand binding.

[4] = tested on: purified mouse liver mitochondria; assay: Cytochrome c release assay (ELISA), wild-type mitochondria; type: biochemical
Method: (§1) In order to assess the biological activity of SAHB3BID compounds in vitro, cytochrome c release assays were performed using purified mouse liver mitochondria. Mitochondria (0.5 mg/mL) were incubated for 40 minutes with 1 μM and 100 nM of SAHB3BID compounds and then supernatants and mitochondrial fractions isolated and subjected to cytochrome c ELISA assay. Background cytochrome c release (10-15%) was subtracted from total release for each sample, and the percent actual cytochrome c release was determined (FIG. 12). […] In each case, except for the double cross-linked SAHB3BIDE (which may lack critical amino acids for biological activity or, in this case, be overly constrained by the dual cross-links), there is approximately a doubling of cytochrome c release in response to 1 μM SAHB3BID compounds compared to the unmodified peptide (FIG. 12a). […] BID mutants with defective BH3 domains can promote BAK-independent cytochrome c mobilization (Scorrano et al, Dev Cell, 2:55), and the highly hydrophobic BID helix 6 has been implicated in this activity (L. Scorrano, S. J. Korsmeyer, unpublished results).
Similar to the above experiment, mouse liver mitochondria from wild-type and Bak−/− mice were exposed to the compounds at various concentrations and assayed for cytochrome c release at 10 and 40 minute intervals. […] Thus, SAHB3BIDA and B display a 10-25 fold enhancement in cytochrome c release activity at the 40 minute time point.

[5] = tested on: mouse liver mitochondria isolated from Bak-/- mice; assay: Cytochrome c release assay, Bak-/- mitochondria (BAK-independent release); type: biochemical; details: 1 μM, 40 minutes
Method: as §1
Similar to the above experiment, mouse liver mitochondria from wild-type and Bak−/− mice were exposed to the compounds at various concentrations and assayed for cytochrome c release at 10 and 40 minute intervals. […]

[6] = tested on: Jurkat cells engineered to overexpress BCL-2; assay: Apoptosis by annexin V flow cytometry; type: cell-based
Method: Indeed, the pro-apoptotic effect of 10 uM SAHB3BIDA and B on “wild-type” Jurkats was abolished in the BCL-2 overexpressing cells. […] The observed pro-apoptotic effects are selectively abolished by gly to glu mutation of SAHB3BIDA and cellular overexpression of BCL-2, findings which underscore that SAHB3BID compounds function via the defined mitochondrial apoptosis pathway.

[7] = tested on: REH, MV4; 11, and SEMK2 cell lines; assay: Apoptosis induction assays; type: cell-based
SEMK2-M1 leukemia cells = assay: SEMK2 leukemia in vivo, total body luminescence

percent detectable in serum ([1]; one hour after injection): 12%
Molecule: CCCC[C@H](NC(=O)[C@H](CO)NC(=O)[C@H](CC(=O)O)NC(=O)CNC(=O)[C@@H](NC(=O)[C@H](CCC(N)=O)NC(=O)[C@H](C)NC(=O)[C@H](CC(C)C)NC(=O)[C@H](Cc1c[nH]cn1)NC(=O)[C@H](CCCNC(=N)N)NC(=O)[C@H](C)NC(=O)[C@@H](NC(=O)[C@H](CC(N)=O)NC(=O)[C@H](CCCNC(=N)N)NC(=O)[C@@H](NC(=O)[C@@H](NC(=O)[C@H](CC(=O)O)NC(=O)[C@@H](N)CCC(=O)O)[C@@H](C)CC)[C@@H](C)CC)[C@@H](C)CC)C(C)C)C(=O)N[C@@H](CC(=O)O)C(=O)N[C@@H](CCCNC(=N)N)C(=O)N[C@@H](CO)C(=O)N[C@H](C(=O)N[C@@H](Cc1c[nH]c2ccccc12)C(N)=O)[C@@H](C)CC [BID BH3, reference compound] (H-EDIIRNIARHLAQVGDS[Nle]DRSIW-NH2)

Molecule: CCCC[C@H](NC(=O)[C@H](CO)NC(=O)[C@H](CC(=O)O)NC(=O)CNC(=O)[C@@H](NC(=O)[C@H](CCC(N)=O)NC(=O)[C@H](C)NC(=O)[C@H](CC(C)C)NC(=O)[C@H](Cc1c[nH]cn1)NC(=O)[C@H](CCCNC(=N)N)NC(=O)[C@H](C)NC(=O)[C@@H](NC(=O)[C@H](CC(N)=O)NC(=O)[C@H](CCCNC(=N)N)NC(=O)[C@@H](NC(=O)[C@@H](NC(=O)[C@H](CC(=O)O)NC(=O)[C@H](CCC(=O)O)NC(=O)CCNC(=S)Nc1ccc2c(c1)C(=O)OC21c2ccc(O)cc2Oc2cc(O)ccc21)[C@@H](C)CC)[C@@H](C)CC)[C@@H](C)CC)C(C)C)C(=O)N[C@@H](CC(=O)O)C(=O)N[C@@H](CCCNC(=N)N)C(=O)N[C@@H](CO)C(=O)N[C@H](C(=O)N[C@@H](Cc1c[nH]c2ccccc12)C(N)=O)[C@@H](C)CC [FITC-BID BH3] ({FITC-βAla}-EDIIRNIARHLAQVGDS[Nle]DRSIW-NH2)
intracellular distribution of fluorescence [2]: no cellular labeling | FITC labeling of cells at 4° C. and 37° C. [3]: did not label the cells at either temperature | FITC labeling with or without sodium azide and 2-deoxyglucose [3]: no labeling for either condition

enhancement in trypsin resistance compared to the unmodified peptide (trypsin): 3.5 fold | increase in displacement potency compared to unmodified BID BH3 peptide (GST-BCL-2): more than 13 fold | GST-BCL2 binding, in words (GST-BCL-2; competition with FITC-labeled unmodified BID BH3): highest affinity binding | IC50 (GST-BCL-2; read-out: IC50 for displacement of prebound FITC-BID BH3 from BCL-2): 62 nM | enhancement in BCL-2 binding affinity compared to unmodified BID BH3 peptide (BCL-2): 6 fold | Kd (BCL-2; fluorescinated compounds 25 nM, GST-BCL2 25 nM-1000 nM (FIG. 11d)): 38.8 nM | BAX binding, in words (BAX): measurable binding | EC50 ([4]; 40 minutes): 310 nM | percent of the input still measurable in serum ([1]; 22 hours post-injection): 13% | IC50 (Jurkat): 2200 nM | IC50 (REH): 10200 nM | IC50 (MV4;11): 4700 nM | IC50 (SEMK2): 1600 nM | IC50 (RS4;11): 2700 nM
Molecule: CCCC[C@H](NC(=O)[C@]1(C)CCCC=CCCC[C@](C)(NC(=O)[C@H](C)NC(=O)[C@H](CC(C)C)NC(=O)[C@H](Cc2c[nH]cn2)NC(=O)[C@H](CCCNC(=N)N)NC(=O)[C@H](C)NC(=O)[C@@H](NC(=O)[C@H](CC(N)=O)NC(=O)[C@H](CCCNC(=N)N)NC(=O)[C@@H](NC(=O)[C@@H](NC(=O)[C@H](CC(=O)O)NC(=O)[C@H](CCC(=O)O)NC(C)=O)[C@@H](C)CC)[C@@H](C)CC)[C@@H](C)CC)C(=O)N[C@@H](C(C)C)C(=O)NCC(=O)N[C@@H](CC(=O)O)C(=O)N1)C(=O)N[C@@H](CC(=O)O)C(=O)N[C@@H](CCCNC(=N)N)C(=O)N[C@@H](CO)C(=O)N[C@H](C(=O)N[C@@H](Cc1c[nH]c2ccccc12)C(N)=O)[C@@H](C)CC [SAHB3BIDA]
BCL-XL binding site, in words (BCL-XL): binds to the defined hydrophobic pocket of BCL-XL | cytochrome c release at ten-fold lower dosing, in words ([4]; 100 nM, 40 minutes): retain selective BAK-dependent cytochrome c release activity | cytochrome c release at 10 minutes, in words ([4]; 10 minutes): significant cytochrome c release | BAK-independent cytochrome c release, in words [5]: BAK-independent cytochrome c release is observed | pro-apoptotic effect in BCL-2 overexpressing cells ([6]; 10 uM): abolished | overcoming BCL-2 protection by dose escalation ([6]; dose response (FIG. 24)): can be overcome by dose escalation | apoptosis induction, in words [7]: specific apoptosis induction | tumor burden (total body luminescence) (SEMK2-M1 leukemia cells; 10 mg/kg intravenously on days 1, 2, 3, 5, 6, measured days 4 and 7): leukemic suppression | tumor burden (total body luminescence) (SEMK2-M1 leukemia cells; 10 mg/kg or 5 mg/kg intravenously on days 1, 2, 3, 6, 7, measured days 4 and 8): dose-dependent manner

B1: myristolated BID protein: maximally activated myristolated BID protein (protein, UniProt P55957 1-195, looked up)
BH3-interacting domain death …: MDCEVNNGSSLRDECITNLLVFGFLQSCSDNSFRRELDALGHELPVLAPQWEGYDELQTDGNRSSHSRLGRIEADSESQEDIIRNIARHLAQVGDSMDRSIPPGLVNGLALQLRNTSRSEEDRNRDLATALEQLLQAYPRDMEKEKTMLVLALLLAKKVASHTPSLLRDVFHTTVNFINQNLRTYVRSLARNGMD
modifications: myristoylated
cytochrome c released ([4]; 30 nM): approximately 65%

Reference: patent publication US8198405B2, “Stabilized alpha helical peptides and uses thereof” (Dana-Farber Cancer Institute, Inc., priority 2003, dated 2012)
